Laboratory results: patent publication US12264352B2, “Method for enhancing extracellular vesicle production” (Research Foundation of the City University of New York, priority 2016, dated 2025)
Non-standard residues stand in square brackets, D forms with d. Residues, ends and D or L forms follow the SMILES beside them. *: point of attachment. Acetyl(2-naphthyl) = O=C(Cc1ccc2ccccc2c1)*; pY = N[C@@H](Cc1ccc(OP(=O)(O)O)cc1)C(=O)O; NBD = O=[N+]([O-])c1ccc(*)c2nonc12

How the values were obtained:
[1] = test system: MDA-MB231 breast cancer cells; assay: Cell death of the cells used for EV production at high peptide concentration; type: cell-based; conditions: the particular cells used for EV production
Description: The NTA can also determine the average diameter of released EVs. While the increase of polymer concentration in parental cells increases the number of released EVs, the size of EVs is constant regardless of the polypeptide concentration in parental cells (FIG. 3B, FIG. 3C, FIG. 3D, FIG. 3E). The increased number of released EVs can also be confirmed by the increase of fluorescence intensity of collected EVs (FIG. 3F), measured by fluorescence spectrometer. […] In one embodiment, production is enhanced by at least 50% relative to the control. […] The particular cells used experienced cell death at concentrations above 500 μM of NapFFKYp-NBD. Alternative upper limits may be possible for other cell line and other polypeptide precursors.

[2] = test system: MB231, HT1080, MB231-4175; assay: Cell tests (toxicity/viability) for various cell types at 0-200 μM peptide after 60 min of incubation; type: cell-based; conditions: in general, toxicity depends on cell type; 60 min incubation; FIG. 5A
Method: As shown in FIG. 5A toxicity depends on the cell type, however in general cells are viable under 100 μM of peptide incubation (NapFFK(NBD)Yp). […] Thus, EV generation can be amplified as low as 5 μM of peptide incubation and shorter times to be effective.

## O=C(Cc1ccc2ccccc2c1)N[C@@H](Cc1ccccc1)C(=O)N[C@@H](Cc1ccccc1)C(=O)N[C@@H](CCCCNc1ccc([N+](=O)[O-])c2nonc12)C(=O)N[C@@H](Cc1ccc(OP(=O)(O)O)cc1)C(=O)O [NapFFK(NBD)Yp] ({Acetyl(2-naphthyl)}-FFK(NBD)[pY]-OH)
[1]
  concentration above which cells experienced cell death: above 500 μM
[2]
  peptide concentration under which cells are viable: under 100 μM
